Reference: patent US11299480B2, “2-arylsulfonamido-N-arylacetamide derivatized STAT3 inhibitors” (University of Hawaii, priority 2017, dated 2022)
Read-outs that look alike come from different tables or passages of the source.

Key:
Stat3 [1] = target: Stat3 (Mus musculus, UniProt P42227); assay type: biochemical
Procedure: FIG. 1. Effect of select compounds of the present invention on Stat3 DNA-binding activity in vitro. […] Positions of Stat3:DNA complexes in gel are labeled; control lanes (0) represent nuclear extracts pre-treated with 10% DMSO.
(§1) Except where indicated, nuclear extracts were pre-incubated with compound for 30 min at room temperature prior to incubation with the radiolabeled probe for 30 min at 30° C. before subjecting to EMSA analysis. Where appropriate, bands corresponding to Stat3:DNA complexes were scanned and quantified for each concentration of compound using ImageJ and plotted as percent of control (DMSO) against concentration of compound, from which the IC50 values were derived.

pY705Stat3 [2] = assay: Constitutive Stat3 tyrosine phosphorylation, immunoblot, MDA-MB-231 cells; assay type: cell-based, human; conditions: MDA-MB-231, 5 μM, 1 h treatment
Procedure: (§2) FIG. 3. Effects of select compounds of the present invention on Stat3 DNA-binding activity and Stat3 tyrosine phosphorylation in cells. (FIG. 3A) EMSA analysis of Stat3 DNA-binding activity in nuclear extracts of equal total protein prepared from cells treated with DMSO (0 as control, Con), 5 or 10 μM of compounds for 1-34 h. Positions of Stat3:DNA complexes in gel are labeled. […] Positions of Stat3:DNA complexes or proteins in gel are shown; control (0 or Con) lane represents whole-cell lysates or nuclear extracts prepared from 0.05% DMSO-treated cells. […] Data are representative of 2-3 independent determinations.
(§3) All antibodies tested were purchased from Cell Signaling Technology.
(§4) Altogether, the new analogs show strong, albeit variable degrees of inhibition of constitutive Stat3 DNA-binding activity and Tyr phosphorylation in human tumor cells.

pY705Stat3 [3] = assay: Constitutive Stat3 tyrosine phosphorylation, immunoblot, MDA-MB-468 cells; assay type: cell-based, human; conditions: MDA-MB-468, 5 μM, 1 h treatment (inhibition stated only for MDA-MB-231)
Procedure: as §2, §3, §4

Stat5 = Stat5 DNA-binding activity in vitro, EMSA (MGFe probe); assay type: biochemical; conditions: 10 μM or 0-30 μM compound
From the text: FIG. 2. […] Positions of Stat:DNA complexes in gel are labeled; control lanes (0 or Con) represent nuclear extracts pre-treated with 10% DMSO. […] Where appropriate, bands corresponding to Stat3:DNA complexes were scanned and quantified for each concentration of compound using ImageJ and plotted as percent of control (DMSO) against concentration of compound, from which the IC50 values were derived.

Caco-2 cells = assay: Cell membrane permeability, Caco-2 cells assay; conditions: for Caco-2 Cells Permeability A to B / Caco-2 Cells Recovery A to B: apical to basolateral; for Caco-2 Cells Permeability A to B / Caco-2 Cells Permeability B to A: first number of cell, 10^−6 cm/sec; for Caco-2 Cells Recovery A to B / Caco-2 Cells Recovery B to A: second number of cell; for Caco-2 Cells Permeability B to A / Caco-2 Cells Recovery B to A: basolateral to apical
in vitro [4] = conditions: human, Caco-2
in vitro [5] = conditions: mouse, liver microsomes
in vitro [6] = conditions: human, liver microsomes
pSrc = assay: Stat3-independent signaling, immunoblot of pSrc, MDA-MB-231 cells; assay type: cell-based, human; conditions: MDA-MB-231, 5 μM, 24 h treatment
From the text: (§5) FIG. 4. Effects of select compounds of the present invention on Stat3-independent signal transduction events. […] Positions of proteins in gel are labeled; control lane (Con) represents whole-cell lysate prepared from 0.05% DMSO-treated cells.
as §3, §4

pJak2 = assay: Stat3-independent signaling, immunoblot of pJak2, MDA-MB-231 cells; assay type: cell-based, human; conditions: MDA-MB-231, 5 μM, 24 h treatment
From the text: as §5, §3, §4

pERK1/2 = assay: Stat3-independent signaling, immunoblot of pERK1/2, MDA-MB-231 cells; assay type: cell-based, human; conditions: MDA-MB-231, 5 μM, 24 h treatment
From the text: as §5, §3, §4

Stat1 = Stat1 DNA-binding activity in vitro, EMSA (MGFe probe); assay type: biochemical; conditions: 10 μM or 0-30 μM compound
From the text: FIG. 2. Effects of select compounds of the present invention on Stat1 and Stat5 DNA-binding activity. […] Positions of Stat:DNA complexes in gel are labeled; control lanes (0 or Con) represent nuclear extracts pre-treated with 10% DMSO. Data are representative of 1-3 independent determinations. […] Where appropriate, bands corresponding to Stat3:DNA complexes were scanned and quantified for each concentration of compound using ImageJ and plotted as percent of control (DMSO) against concentration of compound, from which the IC50 values were derived. In order to determine the specificity of select new analogs active against Stat3 activity, the inventors investigated the effects on the inhibition of other STAT family members, including Stat1 and Stat5 DNA-binding activity in vitro.

Stat3 [7] = target: Stat3 (Homo sapiens (Human), UniProt P40763); assay: Stat3 DNA-binding activity in nuclear extracts of treated MDA-MB-231 cells, EMSA; assay type: cell-based; conditions: 10 μM
Sequence of Stat3 (Homo sapiens (Human), UniProt P40763) (P40763 whole entry): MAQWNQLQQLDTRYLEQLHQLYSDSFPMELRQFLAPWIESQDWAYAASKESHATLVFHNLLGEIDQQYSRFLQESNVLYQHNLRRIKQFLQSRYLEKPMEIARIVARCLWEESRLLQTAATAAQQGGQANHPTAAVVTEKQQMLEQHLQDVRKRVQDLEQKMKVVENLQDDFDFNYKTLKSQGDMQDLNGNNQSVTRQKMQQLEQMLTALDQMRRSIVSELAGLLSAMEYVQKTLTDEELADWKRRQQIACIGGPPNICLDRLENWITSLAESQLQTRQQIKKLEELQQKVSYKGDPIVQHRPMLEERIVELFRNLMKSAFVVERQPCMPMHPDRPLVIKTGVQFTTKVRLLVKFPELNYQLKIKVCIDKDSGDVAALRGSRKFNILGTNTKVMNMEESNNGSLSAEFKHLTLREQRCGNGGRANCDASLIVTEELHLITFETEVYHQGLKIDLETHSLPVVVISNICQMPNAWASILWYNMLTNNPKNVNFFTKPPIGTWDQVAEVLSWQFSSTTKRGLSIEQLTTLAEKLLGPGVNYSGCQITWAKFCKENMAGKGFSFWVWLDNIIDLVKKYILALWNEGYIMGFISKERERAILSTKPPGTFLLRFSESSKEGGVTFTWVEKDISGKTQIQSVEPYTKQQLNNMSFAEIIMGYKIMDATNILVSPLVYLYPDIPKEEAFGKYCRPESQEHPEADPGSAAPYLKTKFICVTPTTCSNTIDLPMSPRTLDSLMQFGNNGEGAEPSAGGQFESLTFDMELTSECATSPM
Procedure: as §2
as §1, with “The ^32P-labeled oligonucleotide probes used were hSIE (high affinity sis-inducible element from the c-fos gene, m67 variant, 5′-[…]) (SEQ ID NO: 1) that binds Stat1 and Stat3 and MGFe (mammary gland factor element from the bovine β-casein gene promoter, 5′-[…]) (SEQ ID NO: 2) for Stat1 and Stat5 binding. Except” for “Except”
Select compounds of the invention were investigated for their inhibitory effects of the active analogs on intracellular Stat3 signaling. […] Nuclear extracts were prepared and subjected to EMSA analysis for Stat3 DNA-binding activity. […] Stat3 DNA-binding activity in MDA-MB-231 cells was inhibited by both Examples 1 and 5 following treatment at 3 h, with little change at 1 h (FIG. 3A).

MDA-MB-231 = assay: CyQuant cell viability assay, MDA-MB-231; assay type: cell-based, human; conditions: MDA-MB-231, CyQuant, 0-10 μM, 72 h
Procedure: (§6) FIG. 6. Effects of select compounds of the present invention on cell viability. […] Cells were first grown in 6-well plates then were treated once with 0-10 μM of the indicated compounds for 72 h. Viable cells were assayed using CyQuant cell proliferation kit and plotted as % cell viability against concentration. Control (0) represents 0.05% DMSO-treated cells. Values, mean ± S.D. of 2-3 independent determinations.
(§7) Cells in 6-well or 96-well plates were treated with or without compounds for the indicated concentrations and time, and subjected to MTT assay or CyQuant cell proliferation assay (Invitrogen/ThermoFisher Scientific), or harvested and the viable cells were counted by trypan blue exclusion with phase-contrast microscopy.
(§8) Constitutive Stat3 activity promotes tumor cell growth and proliferation and survival (Darnell J E (2005) Nat Med. 11:595-6; Bowman T, et al., (2000) Oncogene 19:2474-2488). Some of the compounds of the present invention were tested against tumor cells harboring constitutively-active Stat3.

MCF7 = assay: CyQuant cell viability assay, MCF7; assay type: cell-based, human; conditions: MCF7 (no aberrantly-active Stat3), CyQuant, 72 h
Procedure: as §6, §7, §8

MDA-MB-468 = assay: CyQuant cell viability assay, MDA-MB-468; assay type: cell-based, human; conditions: MDA-MB-468, CyQuant, 0-10 μM, 72 h
Procedure: as §6, §7, §8

[8] = Aqueous solubility (PBS, SGF, SIF)
[9] = Human liver microsomal (HLM) metabolic stability; conditions: liver microsomes
[10] = Mouse liver microsomal (MLM) metabolic stability; conditions: mouse, liver microsomes
[11] = Stat3 DNA-binding activity in vitro, nuclear extracts pre-incubated with compound 30 min at room temperature, hSIE probe, read-out: EMSA IC50
[12] = simulated gastric fluid (SGF), pH 1.2, simulated gastric fluid

Sequence of Stat3 (Mus musculus, UniProt P42227) (P42227 2-770 limits assumed): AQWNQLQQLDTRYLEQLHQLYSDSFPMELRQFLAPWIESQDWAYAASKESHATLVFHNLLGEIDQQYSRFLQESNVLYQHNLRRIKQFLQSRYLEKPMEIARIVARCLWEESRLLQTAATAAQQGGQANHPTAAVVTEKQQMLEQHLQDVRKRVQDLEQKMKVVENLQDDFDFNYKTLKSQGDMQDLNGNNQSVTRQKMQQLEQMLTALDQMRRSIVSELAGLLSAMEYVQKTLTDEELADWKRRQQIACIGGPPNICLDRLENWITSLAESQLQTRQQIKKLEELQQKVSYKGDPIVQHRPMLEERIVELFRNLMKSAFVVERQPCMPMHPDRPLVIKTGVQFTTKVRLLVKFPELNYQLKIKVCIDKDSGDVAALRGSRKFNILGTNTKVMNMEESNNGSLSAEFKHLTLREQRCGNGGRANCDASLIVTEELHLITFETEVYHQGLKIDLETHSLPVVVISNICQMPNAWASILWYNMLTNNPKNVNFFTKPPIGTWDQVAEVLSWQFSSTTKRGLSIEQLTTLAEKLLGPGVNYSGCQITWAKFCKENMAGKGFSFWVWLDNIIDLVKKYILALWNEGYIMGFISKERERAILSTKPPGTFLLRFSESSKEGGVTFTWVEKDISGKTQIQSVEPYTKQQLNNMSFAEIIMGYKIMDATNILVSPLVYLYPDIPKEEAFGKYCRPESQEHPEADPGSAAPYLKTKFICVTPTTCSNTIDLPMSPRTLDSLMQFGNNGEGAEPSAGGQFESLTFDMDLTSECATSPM

For `O=C(O)c1ccc(N(Cc2ccc(C3CCCCC3)cc2)C(=O)[C@@H]2CCCN2S(=O)(=O)c2c(F)c(F)c(F)c(F)c2F)cc1O` [Example 26, (S)-4-(N-(4-Cyclohexylbenzyl)-1-((pentafluorophenyl)sulfonyl)pyrrolidine-2-carboxamido)-2-hydroxybenzoic acid], the IC50 (Stat3 [1]; [11]) was 7.2 ± 3.4 µM, the pY705Stat3 levels (pY705Stat3 [2]) was “inhibited pY705Stat3 levels” and the pY705Stat3 levels (pY705Stat3 [3]) was “only inhibited pY705Stat3 levels in MDA-MB-231”.
For `C[C@H](C(=O)N(Cc1ccc(C2CCOCC2)cc1)c1ccc(C(=O)O)c(O)c1)N(C)S(=O)(=O)c1c(F)c(F)c(F)c(F)c1F` [Example 57, (R)-2-Hydroxy-4-(2-((2,3,4,5,6-pentafluoro-N-methylphenyl)sulfonamido)-N-(4-(tetrahydro-2H-pyran-4-yl)benzyl)propanamido)benzoic acid], the IC50 (Stat3 [1]; [11]) was 5 ± 0.8 µM and the “effect on Stat5 DNA-binding activity” value (Stat5) was “minimum effect”.
In the case of `O=C(O)c1ccc(N(Cc2ccc(C3CCOCC3)cc2)C(=O)[C@H]2CCCN2S(=O)(=O)c2c(F)c(F)c(F)c(F)c2F)c(F)c1` [Example 60, (R)-3-Fluoro-4-(1-((perfluorophenyl)sulfonyl)-N-(4-(tetrahydro-2H-pyran-4-yl)benzyl)pyrrolidine-2-carboxamido)benzoic acid], the “Caco-2 Cells Permeability A to B” value (Caco-2 cells) is reported as 0.1, the “Caco-2 Cells Recovery A to B” value (Caco-2 cells) is reported as 8% and the “Caco-2 Cells Permeability B to A” value (Caco-2 cells) is reported as 0.1. For the same compound, the “Caco-2 Cells Recovery B to A” value (Caco-2 cells) was 67%, the Papp (in vitro [4]) was 0.2 ×10⁻⁶ cm/s and the half-life (in vitro [5]) was 26 min. It also gave a half-life (in vitro [6]) of 54 min.
With `C[C@H](C(=O)N(Cc1ccc(C2CCCCC2)cc1)c1ccc(C(=O)O)cc1Cl)N(C)S(=O)(=O)c1c(F)c(F)c(F)c(F)c1F` [Example 40, (R)-3-chloro-4-(N-(4-cyclohexylbenzyl)-2-((2,3,4,5,6-pentafluoro-N-methylphenyl)sulfonamido)propanamido)benzoic acid] the “effect on pSrc” value (pSrc) was “little effect”, the “effect on pJak2” value (pJak2) was “little effect” and the “effect on pERK1/2” value (pERK1/2) was “little effect”.
With `C[C@@H](C(=O)N(Cc1ccc(C2CCCCC2)cc1)c1ccc(C(=O)O)c(O)c1)N(C)S(=O)(=O)c1c(F)c(F)c(F)c(F)c1F` [Example 5, (S)-4-(N-(4-Cyclohexylbenzyl)-2-((2,3,4,5,6-pentafluoro-N-methylphenyl)sulfonamido)propan-amido)-2-hydroxybenzoic acid] the “effect on Stat1 DNA-binding activity” value (Stat1) was “inhibited Stat1 activity to a moderate extent”, the “Stat3 DNA-binding activity in MDA-MB-231 cells” value (“Stat3 DNA-binding activity” below) (Stat3 [7]; 1 h treatment) was “little change” and the “Stat3 DNA-binding activity” value (Stat3 [7]; 3 h treatment) was “inhibited”. For the same compound, the “Stat3 DNA-binding activity” value (Stat3 [7]; 24 h treatment) was “inhibited”.
With `O=C(O)c1ccc(N(Cc2ccc(C3CCCCC3)cc2)C(=O)[C@H]2CCCN2S(=O)(=O)c2c(F)c(F)c(F)c(F)c2F)cc1O` [Example 25, (R)-4-(N-(4-Cyclohexylbenzyl)-1-((pentafluorophenyl)sulfonyl)pyrrolidine-2-carboxamido)-2-hydroxybenzoic acid] the cell viability (MDA-MB-231) was “suppressed the viability”, the cell viability (MCF7) was “only weakly or not inhibited” and the IC50 (Stat3 [1]; EMSA, read-out: IC50, inhibition of Stat3 DNA-binding activity in vitro) was 2.4 µM. For the same compound, the IC50 (Stat3 [1]; [11]) was 2.4 ± 0.4 µM, the pY705Stat3 levels (pY705Stat3 [2]) was “inhibited pY705Stat3 levels” and the cell viability (MDA-MB-468) was “suppressed the viability”. The pY705Stat3 levels (pY705Stat3 [3]) was “only inhibited pY705Stat3 levels in MDA-MB-231”.
With `C[C@H](C(=O)N(Cc1ccc(C2CCCCC2)cc1)c1ccc(C(=O)[O-])c(O)c1)N(C)S(=O)(=O)c1c(F)c(F)c(F)c(F)c1F.[Na+]` the “Caco-2 Cells Permeability A to B” value (Caco-2 cells) was 0, the “Caco-2 Cells Recovery A to B” value (Caco-2 cells) was 6% and the “Caco-2 Cells Permeability B to A” value (Caco-2 cells) was 0. For the same compound, the “Caco-2 Cells Recovery B to A” value (Caco-2 cells) was 2%, the Caco-2 permeability (Caco-2 cells; compounds with cyclohexyl group instead of THP ring) was “no appreciable permeability” and the “solubility in PBS buffer pH 7.4” value [8] was 127 μg/mL. The “solubility in simulated intestinal fluid (SIF)” value [8] was 127 µg/mL, the “Solubility PBS” value ([8]; PBS buffer pH 7.4) was 127 micrograms/milliliter and the “Solubility SIF” value ([8]; simulated intestinal fluid) was 127 micrograms/milliliter. For the same compound, the “Metabolic Stability Half-Life HLM” value [9] was 4 min, the solubility (physchem; [12]) was 1.3 µg/mL and the “Metabolic Stability Half-Life MLM” value [10] was 5 min. For the same compound, the half-life (in vitro [5]) was at most 5 min and the half-life (in vitro [6]) was at most 5 min.
With `O=C([O-])c1ccc(N(Cc2ccc(C3CCOCC3)cc2)C(=O)[C@H]2CCCN2S(=O)(=O)c2c(F)c(F)c(F)c(F)c2F)cc1O.[Na+]` the “Caco-2 Cells Permeability A to B” value (Caco-2 cells) was 0.2, the “Caco-2 Cells Recovery A to B” value (Caco-2 cells) was 34% and the “Caco-2 Cells Permeability B to A” value (Caco-2 cells) was 0.2. For the same compound, the “Caco-2 Cells Recovery B to A” value (Caco-2 cells) was 60%, the solubility (physchem; PBS buffer, pH 7.4, aqueous buffer) was 132 µg/mL and the solubility (physchem; [12]) was 0.4 µg/mL. The solubility (physchem; simulated intestinal fluid (SIF), fassgf or other biorelevant) was 129 µg/mL, the Papp (in vitro [4]) was 0.1 ×10⁻⁶ cm/s and the half-life (in vitro [5]) was 18 min. It also gave a half-life (in vitro [6]) of 15 min.
For `C[C@H](C(=O)N(Cc1ccc(C2CCOCC2)cc1)c1ccc(C(=O)[O-])c(O)c1)N(C)S(=O)(=O)c1c(F)c(F)c(F)c(F)c1F.[Na+]` [Example 59, Sodium (R)-2-hydroxy-4-(2-((2,3,4,5,6-pentafluoro-N-methylphenyl)sulfonamido)-N-(4-(tetrahydro-2H-pyran-4-yl)benzyl)propanamido)benzoate], the “Caco-2 Cells Recovery B to A” value (Caco-2 cells) was 40%, the “Metabolic Stability Half-Life HLM” value [9] was 5 min and the Papp B→A (in vitro [4]) was 0.7 ×10⁻⁶ cm/s. The recovery (in vitro [4]) was 31%, the “Metabolic Stability Half-Life MLM” value [10] was 4 min and the half-life (in vitro [5]) was at most 5 min. For the same compound, the half-life (in vitro [6]) was at most 5 min.
